The NIST ThermoML archive (doi:10.1016/j.jct.2012.05.006)

Conditions: 101.33 kPa, Liquid, Vibrating tube method

CCCCCCCC[n+]1ccn(C)c1.N#C[S-] [1-methyl-3-octyl-1H-imidazolium thiocyanate]
Conditions | mass density [kg/m3]
288.15 K | 1014
293.15 K | 1011.1
298.15 K | 1008.3
303.15 K | 1005.4
308.15 K | 1002.6
313.15 K | 999.7
318.15 K | 996.7
323.15 K | 994.1
328.15 K | 991.3
333.15 K | 988.4
338.15 K | 985.6
343.15 K | 982.9
